Reference: patent US6506778B2, “Acylphenylurea derivatives, a process for their preparation and their use as pharmaceuticals” (Aventis Pharma Deutschland GmbH, priority 2000, dated 2003)

Tests used:
[1] = target: T1, human glycogen phosphorylase a (Homo sapiens, UniProt P06737); test: Glycogen phosphorylase a activity assay (reverse direction, liberation of inorganic phosphate); assay type: biochemical; conditions: 10 μM test substance; in vitro; incubated at room temperature for 40 minutes; absorption at 820 nm
T1 sequence (P06737 1-847): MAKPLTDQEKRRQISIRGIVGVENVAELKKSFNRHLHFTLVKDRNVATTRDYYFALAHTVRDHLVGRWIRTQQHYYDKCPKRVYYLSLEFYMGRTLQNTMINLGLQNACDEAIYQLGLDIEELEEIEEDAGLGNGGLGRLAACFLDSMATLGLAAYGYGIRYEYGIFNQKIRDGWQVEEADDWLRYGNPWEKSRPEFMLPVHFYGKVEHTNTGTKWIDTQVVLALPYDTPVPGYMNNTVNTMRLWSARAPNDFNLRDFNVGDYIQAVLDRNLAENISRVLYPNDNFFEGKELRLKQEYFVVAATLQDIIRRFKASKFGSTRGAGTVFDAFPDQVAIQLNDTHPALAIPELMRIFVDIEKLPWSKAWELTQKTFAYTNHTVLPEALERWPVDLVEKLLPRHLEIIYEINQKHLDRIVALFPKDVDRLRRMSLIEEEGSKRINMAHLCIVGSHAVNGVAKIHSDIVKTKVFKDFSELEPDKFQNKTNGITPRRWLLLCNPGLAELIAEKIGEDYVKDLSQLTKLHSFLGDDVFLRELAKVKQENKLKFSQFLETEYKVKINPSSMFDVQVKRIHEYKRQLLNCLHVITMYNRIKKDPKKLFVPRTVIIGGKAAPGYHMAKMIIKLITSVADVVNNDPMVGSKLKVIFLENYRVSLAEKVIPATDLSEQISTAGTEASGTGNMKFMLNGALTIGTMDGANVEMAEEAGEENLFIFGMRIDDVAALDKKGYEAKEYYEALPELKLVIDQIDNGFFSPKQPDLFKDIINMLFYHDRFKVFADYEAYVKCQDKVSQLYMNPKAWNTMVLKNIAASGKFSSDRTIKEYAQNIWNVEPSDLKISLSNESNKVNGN
Protocol: Glycogen Phosphorylase a Activity Assay
The effect of compounds on the activity of the active form of glycogen phosphorylase (GPa) was measured in the reverse direction by following the synthesis of glycogen from glucose 1-phosphate by determining the liberation of inorganic phosphate. All the reactions were carried out as duplicate determinations in microtiter plates with 96 wells (Half Area Plates, Costar No 3696), measuring the change in absorption owing to the formation of the reaction product at the wavelength specified hereinafter in a Multiskan Ascent Elisa Reader (Lab Systems, Finland).
In order to measure the GPa enzymic activity in the reverse direction, the general method of Engers et al. (Engers H D, Shechosky S, Madsen N B, Can J Biochem 1970 July; 48(7):746-754) was used to measure the conversion of glucose 1-phosphate into glycogen and inorganic phosphate. […] The baseline glycogen phosphorylase a activity in the absence of test substance was determined by adding 10 μl of buffer solution T (0.1% DMSO). […] After incubation at 45° C. for 60 minutes, the absorption at 820 nm was measured. […]

melting point: 164 °C
inhibition at 10 µM [1]: 87%
SMILES: O=C(O)CCCCCOc1c(Cl)cc(NC(=O)NC(=O)c2ccccc2Cl)cc1Cl [Example 1, 6-{2,6-Dichloro-4-[(2-chlorobenzoyl)ureido]phenoxy}hexanoic Acid]
